The results in this text go back to patent publication US20100130738A1 (priority 2007, published 2010).

Where only a bound is given, the exact number is not on record here.

Data set [1] addresses T1, PDE3A catalytic domain (PDE3Acat) (Homo sapiens, UniProt Q14432).
T1 construct: isolate the cDNA of a PDE3A catalytic domain; made in house; host or cells: Sf9 insect cells (baculovirus, Bac-to-Bac / Gateway)
In words: Phosphodiesterase inhibitory activity, recombinant PDE3Acat, [3H]cAMP. It counts as biochemical. To be noted: 30° C. 20 minutes, read-out: IC50 (μmol/L) PDE3.

Data set [2] deals with LPS acute inflammation model in rats. In words: LPS acute inflammation model in rats (total leukocytes in BALF). Type of data set: in vivo, rat. The note with it: 10 mg/kg orally one hour before LPS inhalation, BALF 3 hours after LPS inhalation. As for the experimental part: 10 mg/kg of the compounds were orally administered to rats one hour before inhalation of a lipopolysaccharide from E. coli serotype 055:B5 (LPS), and the rats were made to inhale 50 ml of the LPS solution nebulized using a nebulizer for 30 minutes. Then, 3 hours after LPS inhalation, the rats were euthanized with 20% urethane (5 ml/rat, i.p.). 5 ml of physiological saline for bronchoalveolar lavage was injected into the bronchial tubes and alveoli through the airway, and the bronchial tubes and alveoli were washed three times using a 5 mL syringe. This operation was repeated twice, and the solution was collected as bronchoalveolar lavage fluid (BALF). The collected BALF was centrifuged at 1200 rpm and 4° C. for 10 minutes (Hirtachi; himac CR 5 DL). The pellet was re-suspended in 10 ml of a 0.1% bovine serum albumin-physiological saline, and an equivalent amount of Turk's solution was added thereto to stain leukocytes. The total number of leukocytes was counted under a microscope to calculate the inhibition rate. Further, the indications were as follows: inhibition rate≧80% (+++), 80%≧inhibition rate≧60% (++), and 60%>inhibition rate≧40% (+).

Data set [3] addresses T2, PDE4Bcat (Homo sapiens, UniProt Q07343).
T2 construct: made in house; host or cells: Sf9 insect cells (baculovirus, Bac-to-Bac / Gateway)
The data set can be described thus: Phosphodiesterase inhibitory activity, recombinant PDE4Bcat, [3H]cAMP. The note with it: 30° C. 20 minutes, read-out: IC50 (μmol/L) PDE4. It counts as biochemical.

The test system of data set [4] is histamine-induced bronchoconstriction in guinea pigs. The data set can be described thus: Histamine-induced bronchoconstriction reaction in guinea pigs. It counts as in vivo, guinea pig. The note with it: Cavia porcellus, iv, 0.5 min, compound 0.3 mg/kg i.v., measured 30 seconds after administration, histamine 12.5 μg/kg i.v., read-out: Inhibition rate (histamine-induced bronchoconstriction). As for the experimental part:
Guinea pigs were anesthetized with pentobarbital (30 mg/kg, i.p.). A cannula for intravenous administration, a cannula for collecting blood and measuring blood pressure, and a tracheal cannula were inserted into the left external jugular vein, right internal carotid artery, and trachea, respectively. The guinea pigs were maintained on artificial respiration under conditions of 60 times/min and 10 mL/kg/stroke. The overflowing air from the side branch of the tracheal cannula was measured by a bronchospasm transducer (Ugo-Basile) and recorded on a computer via Power Lab (ADInstruments Japan). The guinea pigs were immobilized with gallamine (10 mg/kg, i.v.), and histamine (12.5 μg/kg, i.v.) was administered at 10-minute intervals. After the histamine-induced bronchoconstriction became stable, the compound (0.3 mg/kg, i.v.) was administered. The histamine-induced bronchoconstriction reaction was measured 30 seconds after the compound administration to examine the bronchoconstriction inhibitory activity of the compound. The bronchoconstriction was recorded as the airflow value, and the results were represented by the ratio of the maximum value of the histamine-induced airflow 30 seconds after administration to the maximum value of the airflow before administration. Also, the test compounds dissolved in DMSO were used. Further, the indications were as follows: inhibition rate≧90% (+++), 90%>inhibition rate≧80% (++), and 80%>inhibition rate≧60% (+).

T2 sequence (Q07343 330-659 limits assumed): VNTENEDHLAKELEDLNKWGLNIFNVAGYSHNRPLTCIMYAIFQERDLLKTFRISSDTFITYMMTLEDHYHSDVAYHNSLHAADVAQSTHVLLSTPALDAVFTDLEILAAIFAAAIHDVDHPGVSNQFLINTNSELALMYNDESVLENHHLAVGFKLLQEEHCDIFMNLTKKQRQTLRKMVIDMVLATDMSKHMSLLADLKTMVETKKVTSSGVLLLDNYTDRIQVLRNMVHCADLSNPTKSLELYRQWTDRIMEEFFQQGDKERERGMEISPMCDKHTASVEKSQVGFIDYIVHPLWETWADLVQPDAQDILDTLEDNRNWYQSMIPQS
T1 sequence (Q14432 674-1093 limits assumed): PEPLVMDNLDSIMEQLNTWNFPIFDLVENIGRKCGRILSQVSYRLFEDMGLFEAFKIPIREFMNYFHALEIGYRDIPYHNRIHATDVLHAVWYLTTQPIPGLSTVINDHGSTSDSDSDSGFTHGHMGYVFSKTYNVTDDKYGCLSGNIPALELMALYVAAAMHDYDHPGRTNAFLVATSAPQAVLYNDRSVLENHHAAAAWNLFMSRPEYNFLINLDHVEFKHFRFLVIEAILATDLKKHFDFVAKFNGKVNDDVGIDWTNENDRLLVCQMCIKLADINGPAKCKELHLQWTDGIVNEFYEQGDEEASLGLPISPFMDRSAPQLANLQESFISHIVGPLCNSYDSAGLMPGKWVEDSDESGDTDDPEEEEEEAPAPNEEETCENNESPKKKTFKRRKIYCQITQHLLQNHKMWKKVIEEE

On to `CCc1ccc2c(C3=NN(CCCCOc4ccc(C5=NNC(=O)CC5C)cc4F)C(=O)C3(C)C)ccc(OC)c2n1` (single isomer, unassigned; (+)) [Example 206, (+)-5-(2-Ethyl-8-methoxyquinolin-5-yl)-2-[4-[2-fluoro-4-(4-methyl-6-oxo-1,4,5,6-tetrahydropyridazin-3-yl)phenoxy]butyl]-4,4-dimethyl-2,4-dihydro-pyrazol-3-one], for which the figures for the IC50 in data set [1] and in data set [3] were 0.1 to 1 µmol/L and 0.01 to 0.1 µmol/L, respectively. Besides, the “Inhibition rate (total number of leukocytes in BALF)” value (“Inhibition rate” for short) in data set [2] is on record as “+ (60%>inhibition rate≧40%)”.

On to `CCc1ccc2c(C3=NN(CCCCOc4ccc(C5=NNC(=O)CC5C)c(F)c4F)C(=O)C3(C)C)ccc(OC)c2n1` (single isomer, unassigned; (+)) [Example 210, (+)-5-(2-Ethyl-8-methoxyquinolin-5-yl)-2-[4-[2,3-difluoro-4-(4-methyl-6-oxo-1,4,5,6-tetrahydropyridazin-3-yl)phenoxy]butyl]-4,4-dimethyl-2,4-dihydro-pyrazol-3-one], for which the IC50 was below 0.01 µmol/L in data set [1] and 0.01 to 0.1 µmol/L in data set [3]. Besides, in data set [2] (10 mg/kg), the “Inhibition rate” value is reported as “+ (60%>inhibition rate≧40%)”.

Take `CCc1ccc2c(C3=NN(CCCCOc4ccc(C5=NNC(=O)CC5C)cc4F)C(=O)C3(C)C)ccc(OC)c2n1` (single isomer, unassigned; (-)) [Example 207, (−)-5-(2-ethyl-8-methoxyquinolin-5-yl)-2-[4-[2-fluoro-4-(4-methyl-6-oxo-1,4,5,6-tetrahydropyridazin-3-yl)phenoxy]butyl]-4,4-dimethyl-2,4-dihydro-pyrazol-3-one]: the IC50 in data set [1] was below 0.01 µmol/L; in data set [3], 0.01 to 0.1 µmol/L. In addition, the “Inhibition rate” value in data set [2] is on record as “+ (60%>inhibition rate≧40%)”. Also, the inhibition in vivo at 0.3 mg/kg in data set [4] is at least 90%.

With `CCc1ccc2c(C3=NN(CCCCOc4ccc(C5=NNC(=O)CC5C)c(F)c4F)C(=O)C3(C)C)ccc(OC)c2n1` (single isomer, unassigned; (-)) [Example 211, (−)-5-(2-ethyl-8-methoxyquinolin-5-yl)-2-[4-[2,3-difluoro-4-(4-methyl-6-oxo-1,4,5,6-tetrahydropyridazin-3-yl)phenoxy]butyl]-4,4-dimethyl-2,4-dihydro-pyrazol-3-one], the figures for the IC50 in data set [1] and in data set [3] were below 0.01 µmol/L and 0.01 to 0.1 µmol/L, respectively. For the same compound, the “Inhibition rate” value in data set [2] (10 mg/kg) is “++ (80%≧inhibition rate≧60%)”. Moreover, in data set [4], the inhibition in vivo at 0.3 mg/kg is at least 90%.

Turning to `COc1ccc(C2=NN(CCCCOc3ccc(C4=NNC(=O)C4(C)C)c(F)c3F)C(=O)C2(C)C)c2ccc(C)nc12` [Example 197, 2-[4-[2,3-Difluoro-4-(4,4-dimethyl-5-oxo-4,5-dihydro-1H-pyrazol-3-yl)phenoxy]butyl]-5-(8-methoxy-2-methylquinolin-5-yl)-4,4-dimethyl-2,4-dihydro-pyrazol-3-one], the IC50 is below 0.01 µmol/L in data set [1] and 0.01 to 0.1 µmol/L in data set [3]. The “Inhibition rate” value in data set [2] is given as “+++ (inhibition rate≧80%)”. In data set [4], the inhibition in vivo at 0.3 mg/kg is at least 90%.

On to `CCc1ccc2c(C3=NN(CCCCOc4ccc(C5=NNC(=O)CC5C)cc4F)C(=O)C3(C)C)ccc(OC)c2n1` (centres unmarked) [Example 205, 5-(2-Ethyl-8-methoxyquinolin-5-yl)-2-[4-[2-fluoro-4-(4-methyl-6-oxo-1,4,5,6-tetrahydropyridazin-3-yl)phenoxy]butyl]-4,4-dimethyl-2,4-dihydro-pyrazol-3-one], for which the IC50 in data set [1] is below 0.01 µmol/L; in data set [3], 0.01 to 0.1 µmol/L. Further, in data set [2], the “Inhibition rate” value was “+++ (inhibition rate≧80%)”. In addition, the inhibition in vivo at 0.3 mg/kg in data set [4] is at least 90%.

On to `CCc1ccc2c(C3=NN(CCCCOc4ccc(C5=NNC(=O)CC5C)c(F)c4F)C(=O)C3(C)C)ccc(OC)c2n1` (centres unmarked) [Example 209, 5-(2-Ethyl-8-methoxyquinolin-5-yl)-2-[4-[2,3-difluoro-4-(4-methyl-6-oxo-1,4,5,6-tetrahydropyridazin-3-yl)phenoxy]butyl]-4,4-dimethyl-2,4-dihydro-pyrazol-3-one], for which the IC50 in data set [1] was below 0.01 µmol/L; in data set [3], 0.01 to 0.1 µmol/L. The “Inhibition rate” value in data set [2] is listed as “+++ (inhibition rate≧80%)”. In addition, in data set [4], the inhibition in vivo at 0.3 mg/kg is at least 90%.

Compound `COc1ccc(C2=NN(CCCCOc3ccc(C4=NNC(=O)CC4)c(F)c3F)C(=O)C2(C)C)c2cc(C(F)(F)F)sc12` [Example 222, 2-[4-[2,3-Difluoro-4-(6-oxo-1,4,5,6-tetrahydropyridazin-3-yl)phenoxy]butyl]-5-(7-methoxy-2-trifluoromethylbenzo[b]thiophen-4-yl)-4,4-dimethyl-2,4-dihydro-pyrazol-3-one] displayed a melting point of 176 to 177 °C. The IC50 in data set [1] was below 0.01 µmol/L. The IC50 in data set [3] fell in the range of 0.1 to 1 µmol/L.

Consider `COc1ccc(C2=NN(CCCCOc3ccc(C4=NNC(=O)C4(C)C)c(F)c3F)C(=O)C2(C)C)c2cc(C(F)(F)F)sc12` [Example 223, 2-[4-[2,3-Difluoro-4-(4,4-dimethyl-5-oxo-4,5-dihydro-1H-pyrazol-3-yl)phenoxy]butyl]-5-(7-methoxy-2-trifluoromethylbenzo[b]thiophen-4-yl)-4,4-dimethyl-2,4-dihydro-pyrazol-3-one], for which the melting point was 167 to 168 °C. The IC50 in data set [1] fell in the range of 0.01 to 0.1 µmol/L. In data set [3], the IC50 was in the range of 0.01 to 0.1 µmol/L.

In turn, `COc1ccc(C2=NN(CCCCOc3ccc(C4=NNC(=O)CC4C)c(F)c3F)C(=O)C2(C)C)c2cc(C(F)(F)F)sc12` (centres unmarked) [Example 224, 2-[4-[2,3-Difluoro-4-(4-methyl-6-oxo-1,4,5,6-tetrahydropyridazin-3-yl)phenoxy]butyl]-5-(7-methoxy-2-trifluoromethylbenzo[b]thiophen-4-yl)-4,4-dimethyl-2,4-dihydro-pyrazol-3-one] returned a melting point of 137 to 138 °C. The IC50 in data set [1] was below 0.01 µmol/L. In addition, the IC50 in data set [3] was in the range of 0.01 to 0.1 µmol/L.
